Measured values as given in patent US8314140B2, “4-hydroxythiobenzamide derivatives of drugs” (Antibe Therapeutics Inc., priority 2006, dated 2012).

What was measured:
visceral pain perception = experiment: Rat model of visceral pain perception (colorectal distension, AWR score); type: in vivo; settings: 0.8 mL colorectal distention; for pain perception score: 100 mg/kg i.p., FIG. 3, FIG. 4
Protocol: A rat model of visceral pain perception, a pre-clinical model of irritable bowel syndrome, was used in the following example. Rats (male, Wistar, 200-250 g, obtained from Charles River, Monza, Italy), were housed in plastic cages and maintained under controlled conditions with 12-hours light/dark cycle with lights on at 7.00 AM. Tap water and standard laboratory chow were freely available. Before experiments, rats were individually trained by spending 2-3 hours per day in a plexiglass cage for 2-3 days. It allowed them to adjust to a movement-restriction environment. Food was withheld for 12 hours before colorectal distension (CRD) recording were performed. Experiments were performed in awake rats and were conducted in a blind manner in that the observer was not aware of the identity of drug administered to each animal.
In the testing day, rats were sedated with ether inhalation and a 2 cm long latex balloon was inserted intrarectally 2 cm from the anal verge and fixed at the base of the tail. The balloon was connected via a double-barreled cannula to a pressure transducer to continuously monitoring the rectal pressure by a computer (PowerLab PC, A.D. Instruments, Milford, Mass., USA) and to a syringe for inflation/deflation of the balloon. The rats were then housed in a small cage (20×8×8 cm) on an elevated Plexiglas™ platform and allowed to wake up and adapt for 1 hour. After recovery from sedation, animals underwent the CRD procedure and behavioral responses were tested. The night before the experiments, the balloons were inflated and left overnight so the latex stretched and the balloons became compliant.
CRD of 20 seconds, performed every 5 minutes, was applied in increment of 0.4 ml starting from 0.4 ml up to 1.6 ml water. To achieve an accurate measurement of the colonic parameters and perception, the distensions were repeated twice for each intensity and data for each animal were averaged for analysis. Each animal underwent a double set of CRD. Twenty minutes after the first sequence of CRD (0.4 mL-1.6 ml water), drugs were administered intraperitoneally (i.p.) and a second set of CRD was performed. Behavioral responses during the first and the second set of CRD were assessed and compared.
Behavioral response to CRD was assessed by measuring the abdominal withdrawal reflex (AWR) using a semiquantitative score (1).
A rat model of visceral pain perception as described above was used to compare pain perception scores for 5-amino-2-(4-thiocarbamoyl-phenoxycarbonyloxy)-benzoic acid (Compound XXVII) with or without glibenclamide, an inhibitor of ATP-sensitive K^+ (KATP) channels.
Experiments were carried out as described in Example 13, except that groups of 5 rats each were treated with vehicle, trimebutine maleate (10 mg/kg), or with equimolar doses of trimebutine thiocarbamoylbenzoate (Compound III) or thiocarbamolybenzoate alone.

[1] = H2S generation in buffer and liver homogenate (Example 15); type: in vitro ADME, rat; settings: for H2S generation in buffer: buffer pH 7.4, 37° C.
Protocol: (Compound XXVII) was tested for H2S generation under three different conditions. Concentrations of H2S that were generated within 1 hour from 1 mM concentrations of L-cysteine, 4-HBT (4-hydroxythiobenzamide) and 5-amino-2-(4-thiocarbamoyl-phenoxycarbonyloxy)-benzoic acid were measured. H2S release was tested under three conditions: (i) when the compound was in buffer, (ii) when the compound was in a liver homogenate, and (iii) when the compound was in the liver homogenate together with an inhibitor of cystathionine γ-lyase (PAG=DL-propargylglycine; 2 mM). Results are shown in FIG. 6. *p<0.05 compared to the release from the vehicle group. ^ψp>0.05 versus the corresponding ‘homogenate’ group. The enzymatic capacity for H2S production was determined using the same reactor as described previously (Khan et al. (1980) Microchem J 25: 388-395, incorporated herein by reference). Two ml of an assay reaction mixture was introduced in the reactor. The mixture contained 1 mM L-cysteine (or compound), 2 mM pyridoxal 5′-phosphate, 100 mM potassium phosphate buffer (pH=7.4). A constant stream of nitrogen was passed through the mixture via gas-inlet capillary. Reactions were initiated by transferring the tubes from ice bath to a 37° C. water bath. The stream of nitrogen carried the sulfide acid in the second reactor containing 4 ml of sulfide anti-oxidant buffer (SAOB) solution, consisting of 2M KOH, 1M salicylic acid and 0.22M ascorbic acid at pH 12.8[5]. After incubating at 37° C. for 90 minutes, 1 ml of 10% trichloroacetic acid solution was added to mixture to stop the reaction. The remainder H2S in the mixture was carried out via nitrogen stream by other 60 minutes of incubation at 37° C. The concentration of sulfide in SAOB solution was measured with a sulfide sensitive electrode (Model 9616 S^2−/Ag^+ electrode, Orion Research, Beverly, Mass., USA). For studies in which the test compounds were incubated in liver homogenate, 100-150 mg of isolated rat livers were homogenized in 1 ml of ice-cold T-PER protein extractor. The homogenates were added to the reaction mixture at a concentration of 10% (wt/vol). DL-propargylglycine 2 mM was incubated with liver homogenates for 5 min at 37° C. prior the enzyme reaction. Khan, S. U. Morris, G. F. and Hidiroglou, M. (1980) Rapid estimation of sulfide in rumen and blood with a sulfide-specific ion electrode. Microchem J. 25:388-395, incorporated herein by reference.

gastric ulcers = experiment: Healing of acetic acid-induced gastric ulcers; type: in vivo, rat; settings: oral twice-daily for 4 days; 30 μmol/kg (naproxen, Compound XX 60 μmol/kg); FIG. 17
Protocol: Gastric ulcers were induced via serosal application of acetic acid, as described by Elliott et al., A nitric oxide-releasing nonsteroidal anti-inflammatory drug accelerates gastric ulcer healing in rats. […] After 4 days of such treatment, the rats were euthanized and the stomach was excised and photographed. The area (in mm^2) of the ulcer was determined planimetrically by an individual unaware of the treatments given to the rats.

Compound | pain perception score (visceral pain perception) | H2S generation in buffer ([1]; 1 mM compound, FIG. 6) | gastric ulcer healing (ulcer surface area) (gastric ulcers) | pain perception score after glibenclamide pretreatment (visceral pain perception; glibenclamide 10 mg/kg i.p. 30 min before, FIG. 3) | H2S generation in liver homogenate ([1]; 1 mM compound, 10% rat liver homogenate, FIG. 6) | H2S generation in liver homogenate with PAG ([1]; 1 mM compound, liver homogenate plus DL-propargylglycine 2 mM, FIG. 6) | concentration of H2S produced ([1]; 1 mM of the compound)
NC(=S)c1ccc(O)cc1 [4-hydroxythiobenzamide] | did not have a significant effect on pain perception | did not release significant H2S | did not significantly affect the healing of gastric ulcers |  |  |  | 
5-amino-2-(4-thiocarbamoyl-phenoxycarbonyloxy)-benzoic acid [Compound XXVII] | significantly reduced the pain perception | releases H2S spontaneously |  | reversed by pretreatment with glibenclamide | greater when in the presence of tissue | lack of effect | 10 to 20 µM
